Assay results taken from US20230123334A1, “AMINO LIPID COMPOUND, PREPARATION METHOD THEREFOR, AND APPLICATION THEREOF” (SHENZHEN SHENXIN BIOTECHNOLOGY CO., LTD., priority 2020, published 2023).

Assays:
HEK293 cells [1] = test: Preliminary screening as DNA vectors, GFP transfection of HEK293 cells; format: cell-based; conditions: HEK293 cells; lipid/DOPE liposome with 75 ng plasmid DNA (psin-EGFP-IRES-Puro); number of cells expressing GFP divided by total number of nuclei (Hoechst)
Method in brief: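 First, amino lipid and DOPE were vortexed in sodium acetate buffer (pH 5.6) to form liposomes. Next, these were held with 75 ng EGFP plasmid at room temperature for 30 min. Finally, HEK293 cells were added, cultured at 37° C., Hoechst-stained, and GFP+/total nuclei scored by imaging.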

HEK293 cells [2] = test: Preliminary screening as mRNA vectors, EGFP mRNA transfection of HEK293 cells; format: cell-based; conditions: HEK293 cells, 96-well plates, EGFP mRNA 50 ng per well; percentage of GFP fluorescent cells relative to total number of cells (Hoechst)
Method in brief: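 Screening format: EGFP mRNA transfection (50 ng/well) into HEK293 in 10% FBS-supplemented DMEM. Percent green fluorescent cells, normalised to Hoechst nuclear count, gave the value; Lipofectamine2000 was the reference transfectant.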

SMILES | Absolute DNA transfection efficiency in HEK293 cells (HEK293 cells [1]) | Absolute mRNA transfection efficiency in HEK293 cells (HEK293 cells [2])
CCCCCCCCCCCCCCCCSc1nc(NCCN2CCN(C)CC2)nc(SCCCCCCCC)n1 [Compound S8S16D5] | 3.7% | 20.5%
CCCCCCCCCCCCCCCCNc1nc(NCCCCCCC)nc(NCCN2CCOCC2)n1 [Compound N7N16D2] | 0.0% | 0.1%
CCCCCCCCCCSc1nc(NCCN2CCCCC2)nc(SCCCCCCCCC)n1 [Compound S9S10D4] | 13.3% | 4.1%
CCCCCCCCCCCCCCCSc1nc(NCCN2CCN(C)CC2)nc(SCCCCCCCC)n1 [Compound S8S15D5] | 31.2% | 40.0%
CCCCCCCCCCCCCCCCSc1nc(NCCN2CCCC2)nc(SCCCCCCCCCCCCCCC)n1 [Compound S15S16D3] | 0.1% | 0.2%
CCCCCCCCCCCCSc1nc(NCCN2CCOCC2)nc(SCCCCCCCCCC)n1 [Compound S10S12D2] | 2.4% | 0.0%
CCCCCCCCCCCCCCCNc1nc(NCCCCCCCCCCC)nc(NCCN(C)C)n1 [Compound N11N15D1] | 1.3% | 0.6%
CCCCCCCCCCCCNc1nc(NCCCCCCCC)nc(NCCCN(C)C)n1 [Compound N8N12D6] | 0.4% | 0.1%
CCCCCCCCCCCCCCCCCCNc1nc(NCCCCCC)nc(NCC2CCN(C)CC2)n1 [Compound N6N18D10] | 0.4% | 0.1%
CCCCCCCCCCCCCCCCSc1nc(NCCCN(C)C)nc(SCCCCCCCCCC)n1 [Compound S10S16D6] | 14.1% | 41.6%
CCCCCCCCCCCCCCCNc1nc(NCCCCCCCCCCCC)nc(NCCCN(C)C)n1 [Compound N12N15D6] | 0.9% | 2.3%
CCCCCCCCCCCCN(CCCCCCCCCCCC)c1nc(NCCCCCCC)nc(NCC2CCN(C)CC2)n1 [N7^2N12D10] | 1.4% | 2.0%
CCCCCCCCCCCCCCCCCCSc1nc(NCC2CCN(C)CC2)nc(SCCCCCCCCCC)n1 [Compound S10S18D10] | 43.1% | 54.6%
CCCCCCCCCCCCCCCCNc1nc(NCCCCCC)nc(NCC2CCN(C)CC2)n1 [Compound N6N16D10] | 0.7% | 0.8%
CCCCCCCCCCCCNc1nc(NCCCCCCC)nc(NCCN(C)C)n1 [Compound N7N12D1] | 0.2% | 0.1%
CCCCCCCCCCCCCCCCSc1nc(NCC2CCN(C)CC2)nc(SCCCCCCCCCCCCCCC)n1 [Compound S15S16D10] | 0.6% | 0.6%
CCCCCCCCCCCCCCCCCCSc1nc(NCCN2CCN(C)CC2)nc(SCCCCCCCCCC)n1 [Compound S10S18D5] | 3.7% | 3.5%
CCCCCCCCCCCCCCCSc1nc(NCCN2CCN(C)CC2)nc(SCCCCCCCCCCCCCC)n1 [Compound S14S15D5] | 0.0% | 0.0%
CCCCCCCCCCCCCCCCNc1nc(NCCCCCCCCCCC)nc(NCCN2CCN(C)CC2)n1 [Compound N11N16D5] | 0.0% | 2.5%
CCCCCCCCCCCCCCCCSc1nc(NCC2CCN(C)CC2)nc(SCCCCCCCCCCC)n1 [Compound S11S16D10] | 49.0% | 89.2%
